Test results published in PMC10305181, “A VEGFB-Based Peptidomimetic Inhibits VEGFR2-Mediated PI3K/Akt/mTOR and PLCγ/ERK Signaling and Elicits Apoptotic, Antiangiogenic, and Antitumor Activities” (Pharmaceuticals, 2023).
Where two headings read alike, the source gives them in different places. Bridge positions count the residues as written; N and C are the ends. Peptide text beside a SMILES is read from it.

Legend:
Ki67-positive cells = assay: Ki67 immunohistochemistry of 4T1 tumors (proliferation); type: in vivo, murine; conditions: 0.2 mg·kg^−1 i.v.; n = 3; p = 0.04 vs control
Method: (§1) Figure 2 Loop formation is important for the antitumor activity of VGB3. (A) To investigate the efficacy of VGB3 peptides in vivo 13 days after transplantation of a 4T1 murine MCT into female BALB/c mice (the tumor volume ~150 mm^3), the treatment groups received 0.2 mg·kg^−1 (once every 2 days, i.v.) of either the C-VGB3 or L-VGB3 and the control group received PBS for 20 days. Error bars denote ± SEM. n = 6; **** p < 0.0001, ns = not significant; two-way ANOVA. (B) Investigation of C-VGB3 and L-VGB3 effects on mice weight. […] (C,D) Immunohistochemical (IHC) analyses of CD31 and Ki67 for the C-VGB3-, L-VGB3- and PBS-treated tumors. For IHC staining, the sections of tumor tissues were incubated with the primary mouse monoclonal antibodies for CD31 (1:2000 (v/v)) and Ki67 (5 µg·mL^−1). […] Photographs were taken at 40× magnification. Error bars denote ± SEM. n = 3; * 0.02 ≤ p ≤ 0.04, ns = not significant; one-way ANOVA.
(§2) For immunohistochemistry staining, deparaffinized tumor sections were incubated overnight at 4 °C with mouse monoclonal primary anti-Ki67 (5 µg·mL^−1) or anti-CD31 (1:2000 (v/v)). The antigens were detected using 3,3-diaminobenzidine. All images were captured and analyzed with an Olympus BX51 microscope (Olympus America, New York, NY, USA).

ectodomain of VEGFR1 = conditions: ref [9], cited from earlier work
Method: Our previous study has shown that a peptide reproducing helix α1 of VEGFB can unexpectedly interfere with VEGF binding to VEGFR2 and, consequently, inhibit VEGF-stimulated angiogenesis and tumor growth. In the present study, we extend this observation using another peptide (C-VGB3) that mimics loop2 and its adjacent region of VEGFB. […] For instance, competitive binding of C-VGB3 (100 μM) with biotinyl ...

[1] = body weight / tolerability of treated 4T1 tumor-bearing mice; type: in vivo; conditions: 0.2 mg·kg^−1 i.v. once every 2 days
Method: as §1
The antitumor efficacy of the peptides was investigated as described previously. Thirteen days after implanting, tumor (~150 mm^3)-bearing mice were grouped randomly into control and treated animals (6/group). From day 13 to day 33, the treatment group received cyclic or linear VGB3 (0.2 mg·kg^−1), whereas the control group received an equal volume of PBS (i.v., once every two days). The volume of tumors was calculated as 0.52 × length × width^2. In addition, changes in the weight of animals were recorded every 2 days.

4T1 cells = assay: Annexin V/PI flow cytometry, 4T1 cells; type: cell-based, murine; conditions: 0.40 μM, 24 h, VEGF 20 ng·mL^−1; control 1.80; n = 3; p < 0.0001
Method: An important consequence of VEGF signals is cell survival dominantly via PI3K/AKT/mTOR pathway. Thus, inhibition of VEGF signals leads to the induction of apoptosis. Accordingly, the ability of C-VGB3 to induce apoptosis was investigated. First, apoptotic endothelial and tumor cells were analyzed by flow cytometry after staining with annexin V-FITC and PI. (Figure 6A). Treatment with C-VGB3 (0.40 μM) induced significant apoptosis in both cell lines compared to the controls. […] Apoptosis induction by C-VGB3 was further characterized by the TUNEL assay, as an indicator of late apoptosis, with a confocal microscope (Figure 6B).
Annexin V/Propidium Iodide flow cytometry was performed to investigate the C-VGB3 effect on apoptosis induction, as previously described, with some modifications. […]

[2] = tested on: CD31-stained microvessels; assay: CD31 immunohistochemistry of 4T1 tumors (microvessel density); type: in vivo, murine; conditions: 0.2 mg·kg^−1 i.v.; day 33; n = 3; p = 0.02
Method: as §1, §2

HUVECs = assay: MTT assay, HUVECs; type: cell-based, human; conditions: VEGF 20 ng·mL^−1, C-VGB3 0–0.91 μM, n = 3, read-out: half-inhibitory concentration (IC50), cell viability
Method: Figure 4 Inhibition of EC proliferation and tubulogenesis by C-VGB3 through abrogation of VEGFR2-mediated signaling pathways. (A) MTT assay was performed to investigate C-VGB3 effect on the proliferation of ECs. C-VGB3 (0–0.91 μM) was used with (20 ng·mL^−1) or without VEGF. The control cells were treated with no peptide. After 24 and 48 h, the absorbance was measured at 570 nm utilizing an ELISA plate reader (Space Fax 2100, Awareness, Westport, CT, USA). Error bars indicate ± SEM. n = 3; * p = 0.02, ** p = 0.001, *** and ### p = 0.0001, **** and #### p < 0.0001, ns = not significant; one-way ANOVA. (B) The anti-tubulogenesis effect of C-VGB3 in VEGF (20 ng·mL^−1)-induced HUVECs. Image analysis performed by Wimasis image analysis software is illustrated in the bottom panel. Error bars indicate ±SEM. n = 3; *** 0.0004 ≤ p ≤ 0.0001; unpaired Student’s t-test. To evaluate the mechanism by which C-VGB3 diminished cell proliferation and tube formation, Western blot analysis was performed for HUVECs. […]
The effects of C-VGB3 and L-VGB3 on the cell survival of HUVE and 4T1 cell lines were investigated using the MTT assay, as previously described, with some modifications. […] After 24 and 48 h of incubation at 37 °C, the absorbance at 570 nm was recorded using an ELISA plate reader (Space Fax 2100, Awareness, Palm City, FL, USA). […]

## CC(C)C[C@@H]1NC(=O)CNC(=O)[C@H](CC(=O)O)NC(=O)[C@H](CC(=O)O)NC(=O)[C@@H]2CCCN2C(=O)[C@@H]2CCCN2C(=O)[C@H](CCCNC(=N)N)NC(=O)[C@@H](NC(=O)[C@@H](N)CCC(=O)O)CSSC[C@@H](C(=O)O)NC1=O [C-VGB3] (H-ECRPPDDGLC-OH; disulfide 2-10)
Ki67-positive cells
  decrease in Ki67-positive cells: 60%
Ectodomain of VEGFR1; 100 μM, ectodomain of VEGFR1
  displacement of btVEGF165: 63%
Ectodomain of VEGFR1
  binding to VEGFR1: bind and neutralize VEGFR1
[1]; three weeks
  toxicity at this dosage (weight gain): not toxic
[1]; two-way ANOVA
  mice weight vs control groups: no significant differences
4T1 cells
  level of apoptotic cells: 22.6%
[2]
  reduction in vessel density (CD31): 84%
HUVECs; 24 h
  IC50: 510 nM
HUVECs; 48 h
  IC50: 380 nM
